This assay concerns the target T1, Human eIF4E (Homo sapiens, UniProt P06730).
T1 construct: Human eIF4E (aa 28-217) with a C-terminal His-tag; made in house
Briefly: Human eIF4E/4G2 binding assay (TR-FRET). The note with it: eIF4E (aa 28-217) with biotin labeled 4G2 peptide. The protocol:
Human eIF4E (aa 28-217) with a C-terminal His-tag was expressed in E. coli in inclusion bodies. The protein was solubilized with 8 M urea and purified under denaturing conditions using nickel-charged HisTrap HP columns (GE Healthcare). The purified protein was then refolded by diluting in 20 mM Hepes pH 7.0, 0.5 M NaCl, 1 mM DTT, 1 mM EDTA, 0.5 M arginine plus 6 M urea, and then dialyzing overnight into the same buffer without the urea. The protein was further dialyzed into 20 mM Hepes, pH 6.5, 50 mM NaCl, 1 mM EDTA, 1 mM DTT, and concentrated using Hitrap SP sepharose FF columns (GE Healthcare). The concentrated protein was dialyzed into 20 mM Hepes, pH 7.0, 0.5M NaCl, 5 mM DTT and 10% glycerol, and stored at −80° C. until use.
Test compounds (3.43 mM stock in DMSO) were diluted 2-fold in series in DMSO (10 concentration points). Compound solutions (1.2 μl/well) were added into black 384-well polypropylene microplates (Matrix, Thermal Scientific). Twenty-two microliters per well of Assay Buffer (50 mM NaPi, pH 6.5, 50 mM KCl, 1 mM DTT and 0.5 mg/ml gamma globulin) and eight microliters per well of 82.5 nM purified eIF4E in Assay Buffer were added. The samples were incubated at room temperature (20-23° C.) for 15 min. Biotin labeled 4G2 peptide (Ac-Lys-Gln-Tyr-Asp-Arg-Glu-Phe-Leu-Leu-Asp-Phe-Gln-Phe-Met-Pro-Lys(Aha-Bio)-NH2, 1.75 μM stock in DMSO) was diluted to 0.14 μM in Assay Buffer (without DTT) and 5 μl/well was added. The samples were incubated at room temperature for 15 min. Five microliters per well of 6.4 nM Eu-streptavidin (Eu-SA, Perkin Elmer) and 80 nM Allophycocyanin (APC)-anti His antibody (Columbia Biosciences) in Assay Buffer (without DTT) were then added and the samples were incubated at room temperature for 20 min.
Assay signals were monitored by reading excitation at 340 nm and emission fluorescence at 615 nm and 665 nm on an Envision reader (Perkin Elmer). Normalized TR-FRET (time-resolved fluorescence resonance energy transfer) assay signal (Rn) was calculated by the formula: Rn═[(A−Ba−C×D)/(D−Bd)]×(Dc−Bd) • Where A is the fluorescence intensity of the sample at 665 nm, • D is the fluorescence intensity of the sample at 615 nm, • Ba and Bd are plate backgrounds at 665 nm and 615 nm, respectively, • Dc is the fluorescence intensity of 0.78 nM Eu-SA in the assay buffer at 615 nm • The cross-talk factor (C) is determined by the following formula: C=(Ac−Ba)/(Dc−Bd) • Where Ac is the fluorescence intensity of 0.78 nM Eu-SA in the assay buffer at 665 nm.
IC50 values were calculated using xLFit program (IDBS).
On the technique in general: In TR-FRET formats the signal depends on donor and acceptor labels being close together.
T1 sequence (P06730 28-217): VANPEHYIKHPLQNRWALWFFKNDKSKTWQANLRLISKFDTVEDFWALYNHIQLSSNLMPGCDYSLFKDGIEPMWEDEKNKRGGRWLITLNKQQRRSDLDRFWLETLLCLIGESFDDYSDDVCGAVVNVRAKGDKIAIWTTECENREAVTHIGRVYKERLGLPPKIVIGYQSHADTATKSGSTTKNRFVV
In the case of `CC1(C(=O)O)CCCN(c2nc(-c3ccc(-c4cnco4)cc3)c(-c3cncnc3)s2)C1` (centres unmarked) [Compound I-61], the IC50 (as a rule, the point on the concentration scale where inhibition reaches its midpoint) was over 25 µM.
Compound `CC1(C(=O)O)CCCN(c2nc(-c3ccc(-c4cnco4)cc3)c(-c3cccnc3)s2)C1` (centres unmarked) [Compound I-62] yielded an IC50 of over 25 µM.
As to `CC1(C(=O)O)CCCN(c2nc(-c3ccc(-c4cnco4)cc3)c(-c3cccc4[nH]ccc34)s2)C1` (centres unmarked) [Compound I-63], the IC50 is over 25 µM.
Then `CC(C)C(CC(=O)O)Nc1nc(-c2ccc(-c3ccc(F)cc3)cc2)cs1` (centres unmarked) [Compound I-64], with 5 to 25 µM; and `CC(C)C(CC(=O)O)Nc1nc(-c2ccc(-c3ccc(F)cc3)cc2)c(Br)s1` (centres unmarked) [Compound I-65], with 5 to 25 µM; and `CC(C)C(CC(=O)O)Nc1nc(-c2ccc(-c3ccc(F)cc3)cc2)c(-c2ccccc2)s1` (centres unmarked) [Compound I-66], with under 5 µM.
Then `CC(C)C(CC(=O)O)Nc1nc(-c2ccc(-c3ccc(F)cc3)cc2)c(-c2cncnc2)s1` (centres unmarked) [Compound I-67], with over 25 µM.
`CC(C)C(CC(=O)O)Nc1nc(-c2ccc(-c3ccc(F)cc3)cc2)c(-c2cccnc2)s1` (centres unmarked) [Compound I-68]: the IC50 was over 25 µM.
Then `CC(C)C(CC(=O)O)Nc1nc(-c2ccc(-c3ccc(F)cc3)cc2)c(-c2cccc3[nH]ccc23)s1` (centres unmarked) [Compound I-69], with 5 to 25 µM; and `CC(C)(CNc1nc(-c2ccc(-c3ccc(F)cc3)cc2)cs1)C(=O)O` [Compound I-70], with over 25 µM; and `CC(C)(CNc1nc(-c2ccc(-c3ccc(F)cc3)cc2)c(Br)s1)C(=O)O` [Compound I-71], with 5 to 25 µM.
The same measure for `CC(C)(CNc1nc(-c2ccc(-c3ccc(F)cc3)cc2)c(-c2ccccc2)s1)C(=O)O` [Compound I-72]: under 5 µM; for `CC(C)(CNc1nc(-c2ccc(-c3ccc(F)cc3)cc2)c(-c2cncnc2)s1)C(=O)O` [Compound I-73]: over 25 µM.
In turn, `CC(C)(CNc1nc(-c2ccc(-c3ccc(F)cc3)cc2)c(-c2cccnc2)s1)C(=O)O` [Compound I-74] had an IC50 of 5 to 25 µM.
Consider `CC(C)(CNc1nc(-c2ccc(-c3ccc(F)cc3)cc2)c(-c2cccc3[nH]ccc23)s1)C(=O)O` [Compound I-75], for which the IC50 was in the range of 5 to 25 µM.
With `O=C(O)C1CN(c2nc(-c3ccc(-c4ccc(F)cc4)cc3)cs2)C1` [Compound I-76], the IC50 was over 25 µM.
The same measure for `O=C(O)C1CN(c2nc(-c3ccc(-c4ccc(F)cc4)cc3)c(-c3ccccc3)s2)C1` [Compound I-77]: 5 to 25 µM; for `O=C(O)C1CN(c2nc(-c3ccc(-c4ccc(F)cc4)cc3)c(-c3cncnc3)s2)C1` [Compound I-78]: over 25 µM; for `O=C(O)C1CN(c2nc(-c3ccc(-c4ccc(F)cc4)cc3)c(-c3cccnc3)s2)C1` [Compound I-79]: over 25 µM.
Then `O=C(O)C1CN(c2nc(-c3ccc(-c4ccc(F)cc4)cc3)c(-c3cccc4[nH]ccc34)s2)C1` [Compound I-80], with 5 to 25 µM; and `CC1(C(=O)O)CN(c2nc(-c3ccc(-c4ccc(F)cc4)cc3)cs2)C1` [Compound I-81], with over 25 µM.
The same measure for `CC1(C(=O)O)CN(c2nc(-c3ccc(-c4ccc(F)cc4)cc3)c(Br)s2)C1` [Compound I-82]: 5 to 25 µM; for `CC1(C(=O)O)CN(c2nc(-c3ccc(-c4ccc(F)cc4)cc3)c(-c3ccccc3)s2)C1` [Compound I-83]: under 5 µM; for `CC1(C(=O)O)CN(c2nc(-c3ccc(-c4ccc(F)cc4)nc3)c(-c3cncnc3)s2)C1` [Compound I-84]: over 25 µM.
As to `CC1(C(=O)O)CN(c2nc(-c3ccc(-c4ccc(F)cc4)cc3)c(-c3cccnc3)s2)C1` [Compound I-85], the IC50 was over 25 µM.
Then `CC1(C(=O)O)CN(c2nc(-c3ccc(-c4ccc(F)cc4)cc3)c(-c3cccc4[nH]ccc34)s2)C1` [Compound I-86], with 5 to 25 µM; and `CCCC(CNc1nc(-c2ccc(-c3ccc(F)cc3)cc2)cs1)C(=O)O` (centres unmarked) [Compound I-87], with over 25 µM.
`CCCC(CNc1nc(-c2ccc(-c3ccc(F)cc3)cc2)c(Br)s1)C(=O)O` (centres unmarked) [Compound I-88] registered an IC50 of 5 to 25 µM.
For the compound `CCCC(CNc1nc(-c2ccc(-c3ccc(F)cc3)cc2)c(-c2ccccc2)s1)C(=O)O` (centres unmarked) [Compound I-89], the IC50 was under 5 µM.
In the case of `CCCC(CNc1nc(-c2ccc(-c3ccc(F)cc3)cc2)c(-c2cncnc2)s1)C(=O)O` (centres unmarked) [Compound I-90], the IC50 was over 25 µM.
Then `CCCC(CNc1nc(-c2ccc(-c3ccc(F)cc3)cc2)c(-c2cccnc2)s1)C(=O)O` (centres unmarked) [Compound I-91], with over 25 µM.
The same measure for `CCCC(CNc1nc(-c2ccc(-c3ccc(F)cc3)cc2)c(-c2cccc3[nH]ccc23)s1)C(=O)O` (centres unmarked) [Compound I-92]: 5 to 25 µM; for `CC(CC(=O)O)Nc1nc(-c2ccc(-c3ccc(F)cc3)cc2)cs1` (centres unmarked) [Compound I-93]: over 25 µM.
As for `CC(CC(=O)O)Nc1nc(-c2ccc(-c3ccc(F)cc3)cc2)c(Br)s1` (centres unmarked) [Compound I-94], the IC50 lay in the range of 5 to 25 µM.
The same measure for `CC(CC(=O)O)Nc1nc(-c2ccc(-c3ccc(F)cc3)cc2)c(-c2ccccc2)s1` (centres unmarked) [Compound I-95]: 5 to 25 µM; for `CC(CC(=O)O)Nc1nc(-c2ccc(-c3ccc(F)cc3)cc2)c(-c2cncnc2)s1` (centres unmarked) [Compound I-96]: over 25 µM.
In turn, `CC(CC(=O)O)Nc1nc(-c2ccc(-c3ccc(F)cc3)cc2)c(-c2cccnc2)s1` (centres unmarked) [Compound I-97] showed an IC50 of over 25 µM.
`CC(CC(=O)O)Nc1nc(-c2ccc(-c3ccc(F)cc3)cc2)c(-c2cccc3[nH]ccc23)s1` (centres unmarked) [Compound I-98] gave an IC50 of 5 to 25 µM.
The same measure for `CC(CNc1nc(-c2ccc(-c3ccc(F)cc3)cc2)cs1)C(=O)O` (centres unmarked) [Compound I-99]: over 25 µM; for `CC(CNc1nc(-c2ccc(-c3ccc(F)cc3)cc2)c(Br)s1)C(=O)O` (centres unmarked) [Compound I-100]: 5 to 25 µM; for `CC(CNc1nc(-c2ccc(-c3ccc(F)cc3)cc2)c(-c2ccccc2)s1)C(=O)O` (centres unmarked) [Compound I-101]: 5 to 25 µM.
`CC(CNc1nc(-c2cncnc2)c(-c2ccc(-c3ccc(F)cc3)cc2)s1)C(=O)O` (centres unmarked) [Compound I-102] yielded an IC50 of over 25 µM.
With `CC(CNc1nc(-c2ccc(-c3ccc(F)cc3)cc2)c(-c2cccnc2)s1)C(=O)O` (centres unmarked) [Compound I-103], the IC50 is over 25 µM.
The compound `CC(CNc1nc(-c2ccc(-c3ccc(F)cc3)cc2)c(-c2cccc3[nH]ccc23)s1)C(=O)O` (centres unmarked) [Compound I-104] had an IC50 of 5 to 25 µM.
The same measure for `O=C(O)C1CCCN(c2nc(-c3ccc(-c4ccc(F)cc4)cc3)cs2)C1` (centres unmarked) [Compound I-105]: 5 to 25 µM; for `O=C(O)C1CCCN(c2nc(-c3ccc(-c4ccc(F)cc4)cc3)c(-c3ccccc3)s2)C1` (centres unmarked) [Compound I-106]: under 5 µM.
Then `O=C(O)C1CCCN(c2nc(-c3ccc(-c4ccc(F)cc4)cc3)c(-c3cncnc3)s2)C1` (centres unmarked) [Compound I-107], with over 25 µM; and `O=C(O)C1CCCN(c2nc(-c3ccc(-c4ccc(F)cc4)cc3)c(-c3cccnc3)s2)C1` (centres unmarked) [Compound I-108], with 5 to 25 µM.
On to `O=C(O)C1CCCN(c2nc(-c3ccc(-c4ccc(F)cc4)cc3)c(-c3cccc4[nH]ccc34)s2)C1` (centres unmarked) [Compound I-109], for which the IC50 is under 5 µM.
Compound `O=C(O)CC1CCCN1c1nc(-c2ccc(-c3ccc(F)cc3)cc2)cs1` (centres unmarked) [Compound I-110] showed an IC50 of over 25 µM.

The record behind these values is US12030875B2, “EIF4E inhibitors and uses thereof” (PIC Therapeutics, Inc., priority 2018, dated 2024).
